Assays:
[1] = system: MCF10A cells (non-cancerous breast epithelial cells); test: Cell viability, ApoLive Glo Multiplex Assay (live-cell protease fluorescence); type: cell-based; conditions: 24 hours; for effect on the cell viability of MCF10A cells at lower drug concentrations: concentrations of up to 10 μM; for effect on the cell viability of MCF10A cells: 0.1 nM to 100 μM
Experimental: (§1) Non-cancerous breast epithelial cells (MCF10A) and TNBC cell line (MDA-MB-231; mesenchymal; originating from a person) were purchased from the ATCC (American Type Culture Collection, Manassas, Virginia). The effect of the 7 SMEs on cell viability and apoptosis, in MDA-MB-231 and MCF10A cell lines, respectively, was determined as follows. The MCF10A and MDA-MB-231 cells were incubated with different concentrations (100 μM, 10 μM, 1 μM, 0.1 μM, 10 nM, 1 nM, 0.1 nM, and DMSO only) of the 7 SMEs for 24 hours at 37° C. Cell viability and apoptosis was estimated using the ApoLive Glo Multiplex Assay kit 29 (Promega, Madison, WI). Live-cell protease fluorescence (cell viability) was measured at 400 Ex/505 Em and caspase3/7 activation (apoptosis) was measured by luminescence on Envision plate reader.

[2] = system: MDA-MB-231 cells (TNBC cell line); test: as above; type: cell-based; conditions: for EC50: Homo sapiens, MDA-MB-231, 24 hours at 37° C., read-out: EC50, inhibition of TNBC cell viability; for inhibited TNBC cell viability: MDA-MB-231, 24 hours, dose-dependent (up to 100 μM)
Experimental: as §1

MDA-MB-231 cells = test: Apoptosis, caspase3/7 activation, ApoLive Glo Multiplex Assay; type: cell-based; conditions: 24 hr, caspase3/7 luminescence
Experimental: as §1

RFC40 in HEK293 cells = molecular target: T1, RFC40 in HEK293 cells (Homo sapiens, UniProt P35250); test: RFC40 protein expression by Western blot; type: cell-based; conditions: 2 different concentrations, 24 hr
T1 construct: endogenous in cells; host or cells: HEK293
Experimental: HEK293 cells were plated in 6-well plates and grown until they were 80% confluent. The cells were then treated with RDY00012, in a dose-dependent manner [100 μM, 10 μM, 1 μM, 0.1 μM, 0 μM (DMSO only)], for 24 hours at 37° C. Samples were run 9% SDS-PAGE and Western blot analysis was performed using rabbit polyclonal anti-RFC40 (1:100, Abcepta) and mouse monoclonal anti-β-Actin (1:500, Santa Cruz Tech) primary antibodies, respectively. Following incubation with anti-rabbit, and anti-mouse secondary antibodies, respectively, specific proteins were detected by chemiluminescence.

[3] = molecular target: T2, Recombinant human RFC40 protein (Homo sapiens, UniProt P35250); test: RFC40 ATPase enzyme activity, ADP-Glo Max Assay; type: biochemical; conditions: RFC40 250 nM, ATP 25 μM; for inhibition at 0.0001 µM: 0.1 nM compound, after 90 min pre-incubation, read-out: time-dependent increase in the inhibition of the RFC40 enzyme activity; for inhibition of RFC40 enzyme activity after 30 min of incubation: 30 min pre-incubation at 37° C.
T2 construct: purchased Origene Technologies (Rockville, MD)
Experimental: FIGS. 15A-B are graphs of RFC40 ATPase activity inhibition. Human recombinant RFC40 (250 nM) was pre-incubated, individually, with different concentrations of compounds labeled RDY00209 and RDY00120 at 37° C. ATP (25 μM) was then added to the mixture and the ATPase enzyme activity of RFC40 was estimated using the ADP-Glo Max Assay. FIG. 15A presents RFC40 enzyme activity after a 30 min incubation with each compound, and FIG. 15B presents RFC40 enzyme activity after a 90 min incubation with each compound.
Method: Biochemical assays were performed to determine the effects of the 2 SMEs RDY00209 and RDY00120 on the enzymatic activity of RFC40. Recombinant human RFC40 protein was purchased from Origene Technologies (Rockville, MD). ATPase enzyme activity of RFC40 was estimated using the ADP-Glo Max Assay kit^32 (Promega, Madison, WI), as per the manufacturer's instructions. RFC40 (250 nM) was pre-incubated, individually, with different concentrations (100 μM, 0.1 μM, 0.1 nM and 0) of RDY00209 and RDY00120 for 30 min and 90 min, respectively, at 37° C. ATP (25 μM) was then added to the mixture and incubated for another 3 hours at 37° C. Luminescence was read on an Envision plate reader.

T2 sequence (P35250 whole entry): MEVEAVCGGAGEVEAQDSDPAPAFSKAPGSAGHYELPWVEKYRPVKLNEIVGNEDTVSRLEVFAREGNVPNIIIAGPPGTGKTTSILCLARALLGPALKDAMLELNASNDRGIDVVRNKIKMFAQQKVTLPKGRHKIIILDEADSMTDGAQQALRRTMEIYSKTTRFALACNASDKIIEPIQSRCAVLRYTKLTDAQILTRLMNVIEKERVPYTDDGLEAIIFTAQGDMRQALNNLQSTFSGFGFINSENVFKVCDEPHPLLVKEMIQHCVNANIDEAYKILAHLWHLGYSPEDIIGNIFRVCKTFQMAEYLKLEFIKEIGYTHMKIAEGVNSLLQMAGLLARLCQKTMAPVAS
T1 sequence (P35250 whole entry): as above

Structure (SMILES)	effect on the cell viability of MCF10A cells at lower drug concentrations [1]	EC50 [2] [µM]	inhibited TNBC cell viability [2] [%]	induction of apoptosis in MDA-MB-231 cells (MDA-MB-231 cells)	expression of RFC40 (RFC40 in HEK293 cells)	effect on the cell viability of MCF10A cells [1]	inhibition at 0.0001 µM [3] [%]	inhibition of RFC40 enzyme activity after 30 min of incubation [3]
COc1cccc(-c2ccc(=O)n(CCCC(=O)Nc3nnc(C)s3)n2)c1 [RDY00034]	did not affect	5.42	95	did not induce apoptosis				
O=C(O)c1ccc(OCc2ccc3nsnc3c2)cc1 [RDY00012]	did not affect	7.81	95	did not induce apoptosis	downregulated the expression of RFC40			
O=C(O)c1csc(S(=O)(=O)Nc2cccc3c2CCCC3)c1 [RDY00120]		7.14	95	did not induce apoptosis		no effect	36.5	inhibited the enzyme activity in a dose-dependent manner
O=C(O)CNC(=O)CCn1ccc2ccc(Cl)cc21 [RDY00209]		6.92	95	did not induce apoptosis		no effect	22.1	inhibited the enzyme activity in a dose-dependent manner
